Laboratory results from patent publication US9943504B2, “Arginine methyltransferase inhibitors and uses thereof” (Epizyme, Inc., priority 2013, dated 2018).

Molecular target: T1, human PRMT8 (Homo sapiens, UniProt Q9NR22)
T1 construct: Full-length human PRMT8 (NM_019854.4) isoform 1 transcript clone; made in house; host or cells: E. coli BL21(DE3) Gold
Experiment: PRMT8 Biochemical Assay
Conditions: biochemical evaluation, peptide substrate
Text: S-adenosylmethionine (SAM), S-adenosylhomocysteine (SAH), bicine, Tween20, dimethylsulfoxide (DMSO), bovine skin gelatin (BSG), isopropyl-β-D-thiogalactopyranoside (IPTG), and Tris(2-carboxyethyl)phosphine hydrochloride solution (TCEP) were purchased from Sigma-Aldrich at the highest level of purity possible. ^3H-SAM was purchase from American Radiolabeled Chemicals with a specific activity of 80 Ci/mmol. 384-well streptavidin Flashplates were purchased from PerkinElmer.
Peptide representative of human histone H4 residues 31-45 was synthesized with an N-terminal linker-affinity tag motif and a C-terminal amide cap by 21st Century Biochemicals. The peptide was purified by high-performance liquid chromatography (HPLC) to greater than 95% purity and confirmed by liquid chromatography mass spectrometry (LC-MS). The sequence was Biot-Ahx-[…]-amide (SEQ ID NO.: 8).
The resulting construct encodes an N-terminal GST tag and a thrombin cleavage sequence ([…] […]
The assays were all performed in a buffer consisting of 20 mM Bicine (pH=7.6), 1 mM TCEP, 0.005% BSG, and 0.002% Tween 20, prepared on the day of use. […] The plates were then read in a PerkinElmer TopCount plate reader to measure the quantity of ^3H-labeled peptide bound to the Flashplate surface, measured as disintegrations per minute (dpm) or alternatively, referred to as counts per minute (cpm). […]

T1 sequence (Q9NR22 whole entry, canonical isoform): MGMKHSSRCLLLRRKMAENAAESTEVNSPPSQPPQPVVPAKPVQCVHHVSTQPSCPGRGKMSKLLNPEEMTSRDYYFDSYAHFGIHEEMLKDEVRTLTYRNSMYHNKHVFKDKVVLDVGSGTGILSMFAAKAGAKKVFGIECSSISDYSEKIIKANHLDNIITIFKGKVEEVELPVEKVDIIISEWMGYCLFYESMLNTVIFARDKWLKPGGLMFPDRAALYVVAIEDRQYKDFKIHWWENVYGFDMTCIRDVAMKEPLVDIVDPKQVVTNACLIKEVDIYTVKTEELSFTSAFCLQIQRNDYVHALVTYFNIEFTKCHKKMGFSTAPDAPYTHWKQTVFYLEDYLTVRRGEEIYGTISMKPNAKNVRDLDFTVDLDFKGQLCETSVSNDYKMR

Structure (SMILES): CN(CCN)Cc1n[nH]c2cccc(OCc3ccccc3)c12 [Compound 1]
- IC50: 101 to 1000 nM
